From publication PMC5764337 (PLoS ONE, 2018) come the findings set out here.

Some targets named below: A/PR8-I222V virus NA (Influenza A virus (H3N2), UniProt V5P6L4, I222V); A/PR8-S331G virus NA (Influenza A virus (H3N2), UniProt A0A193ACB1, S331G); A/PR8-S331R virus NA (Influenza A virus (H3N2), UniProt A0A193ACB1, S331R); B/YAM-D342S virus NA (Influenza B virus, UniProt Q90021, D342S); B/YAM-A395T virus NA (Influenza B virus, UniProt C0LT34, A395T); B/YAM-A395D virus NA (Influenza B virus, UniProt C0LT34, A395D); B/YAM-A395V virus NA (Influenza B virus, UniProt A0A1W5M8K9, A395V).

What all share (type): biochemical
Setting [1] is: read-out: NA enzyme inhibition assay (mean IC50 ± SD).

SMILES strings stand for the structures.

For the compound `CCC(CC)[C@H](NC(C)=O)[C@@H]1[C@H](O)[C@@H](C(=O)O)C[C@H]1N=C(N)N` [Peramivir, peramivir], the “fold increase in IC50 over A/PR8-WT” value is on record as 0.1 ± 0.01 (1) fold on A/PR8-I222V virus NA, 0.3 ± 0.3 (3) fold on A/PR8-S331G virus NA and 0.2 ± 0.06 (2) fold on A/PR8-S331R virus NA. Moreover, the IC50 amounted to 0.1 nM on A/PR8-I222V virus NA (setting [1]); 0.3 nM at A/PR8-S331G virus NA (setting [1]); 0.2 nM at A/PR8-S331R virus NA (setting [1]); 0.4 nM on B/YAM-D342S virus NA (setting [1]); 0.6 nM on B/YAM-A395T virus NA (setting [1]); 0.5 nM on B/YAM-A395D virus NA (setting [1]). The IC50 at B/YAM-A395V virus NA (setting [1]) was found to be 0.8 nM. Besides, the “fold increase in IC50 over B/BR/60/08” value is listed as 0.4 ± 0.12 (0.8) fold at B/YAM-D342S virus NA, 0.6 ± 0.08 (1.2) fold at B/YAM-A395T virus NA, 0.5 ± 0.36 (1) fold on B/YAM-A395D virus NA and 0.8 ± 0.12 (1.6) fold on B/YAM-A395V virus NA.

In general, IC50 refers to the concentration that inhibits the measured activity by half.
